{
  "source": "paper PMC7075649",
  "about": "(Journal of Medicinal Chemistry, 2019)",
  "key": {"[1]": {"system": "ZIKV", "test": "microbe, parasite or virus in culture", "assay_type": "cell-based", "details": "Zika virus, read-out: ZIKV EC50"}, "[2]": {"system": "AK^+ and AK^– cells", "details": "cited from earlier work"}, "[3]": {"molecular_target": "recombinant human SAH hydrolase (Homo sapiens, UniProt P23526)", "sequence (P23526 whole entry)": "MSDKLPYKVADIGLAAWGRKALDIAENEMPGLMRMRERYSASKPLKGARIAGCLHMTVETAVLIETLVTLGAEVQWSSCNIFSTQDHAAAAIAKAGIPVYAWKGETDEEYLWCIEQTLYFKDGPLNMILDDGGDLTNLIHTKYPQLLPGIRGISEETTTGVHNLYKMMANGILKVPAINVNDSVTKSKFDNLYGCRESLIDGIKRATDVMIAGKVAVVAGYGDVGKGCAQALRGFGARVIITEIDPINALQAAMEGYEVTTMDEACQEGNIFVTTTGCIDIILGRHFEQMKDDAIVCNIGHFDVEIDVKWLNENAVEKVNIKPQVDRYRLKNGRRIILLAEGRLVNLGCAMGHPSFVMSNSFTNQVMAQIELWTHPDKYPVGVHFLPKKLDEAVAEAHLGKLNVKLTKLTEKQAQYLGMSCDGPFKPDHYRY", "assay_type": "biochemical"}, "[4]": {"system": "+RNA viruses", "assay_type": "cell-based"}, "[5]": {"system": "CHIKV", "assay_type": "cell-based, chikungunya virus"}, "[6]": {"system": "Vero cells", "details": "African green monkey"}},
  "note": "pEC50: −log10 of the molar value. Entries after “also recorded” stand apart in the source; their conditions may differ.",
  "data": [
    {"smiles": "O=c1ccn([C@H]2[C@H](O)[C@H](O)[C@@H](CO)[C@@H]2F)c(=O)[nH]1", "note": "[Compound 2g, 1-((1S,2S,3R,4R,5S)-2-Fluoro-4,5-dihydroxy-3-(hydroxymethyl)cyclopentyl)pyrimidine-2,4(1H,3H)-dione]", "values": [
      {"measurement": "pEC50", "setting": "[1]", "result": "< 4.00"}
    ]},
    {"smiles": "Nc1ncnc2c1ncn2[C@@H]1C[C@H](CO)[C@@H](O)[C@H]1O", "note": "[Compound 1, (−)-Aristeromycin]", "values": [
      {"measurement": "toxicity in AK^+ and AK^– cells", "setting": "[2]", "result": "toxic at low concentrations"}
    ]},
    {"smiles": "CNc1ncnc2c1ncn2[C@H]1[C@H](O)[C@H](O)[C@@H](CO)[C@H]1F", "note": "[Compound 2d, (1S,2R,3R,4R,5S)-4-Fluoro-3-(hydroxymethyl)-5-(6-(methylamino)-9H-purin-9-yl)cyclopentane-1,2-diol]", "values": [
      {"measurement": "SAH hydrolase inhibitory activity, fold decrease versus 2a", "setting": "[3]", "result": 11.9, "unit": "fold"},
      {"measurement": "antiviral activity against +RNA viruses (in words)", "setting": "[4]", "result": "did not show significant antiviral activities"}
    ]},
    {"smiles": "O=c1ccn([C@H]2[C@H](O)[C@H](O)[C@@H](CO)[C@H]2F)c(=O)[nH]1", "note": "[Compound 2f, 1-((1S,2R,3R,4R,5S)-2-Fluoro-4,5-dihydroxy-3-(hydroxymethyl)cyclopentyl)pyrimidine-2,4(1H,3H)-dione]", "values": [
      {"measurement": "pEC50", "setting": "[1]", "result": "< 4.00"}
    ]},
    {"smiles": "CNc1ncnc2c1ncn2[C@H]1[C@H](O)[C@H](O)[C@@H](CO)C1(F)F", "note": "[Compound 2e, (1S,2R,3R,5S)-4,4-Difluoro-3-(hydroxymethyl)-5-(6-(methylamino)-9H-purin-9-yl)cyclopentane-1,2-diol]", "values": [
      {"measurement": "antiviral activity against +RNA viruses (in words)", "setting": "[4]", "result": "did not show significant antiviral activities"}
    ]},
    {"smiles": "CC(C)OC(=O)[C@H](C)N[P@](=O)(OC[C@@H]1[C@@H](O)[C@@H](O)[C@H](n2cnc3c(N)ncnc32)C1(F)F)Oc1ccccc1", "note": "[Compound 3a, Iso-propyl ((S)-(((1R,3S,4S,5R)-3-(6-Amino-9H-purin-9-yl)-2,2-difluoro-4,5-dihydroxycyclopentyl)methoxy)(phenoxy)phosphoryl)-L-alaninate]", "values": [
      {"measurement": "antiviral activity against +RNA viruses (in words)", "setting": "[4]", "result": "potent broad-spectrum antiviral activity; also recorded: exhibited significant broad-spectrum antiviral activities"}
    ]},
    {"smiles": "Nc1ncnc2c1ncn2[C@H]1[C@H](O)[C@H](O)[C@@H](CO)C1(F)F", "note": "[Compound 2c, (1R,2S,3S,5R)-3-(6-Amino-9H-purin-9-yl)-4,4-difluoro-5-(hydroxymethyl)cyclopentane-1,2-diol]", "values": [
      {"measurement": "reduction of infectious CHIKV titers", "setting": "[5]", "result": "more than 2 log"},
      {"measurement": "reduction in cytotoxicity versus 2a", "setting": "[6]", "result": "> 5", "unit": "fold"}
    ]}
  ]
}
